System: ovariectomized mice
Test: Blastocyst implantation after embryo transfer in ovariectomized, steroid-primed mice (LIF as replacement for nidatory estrogen)
Format: in vivo
Conditions: for Nos. Implanted / Nos. Pregnant: E2 1 injection of 40 ng or LIF 3 injections of 5 μg 1 hour apart, analysis four days later
Method: Mice were ovariectomized and allowed to recover for 18 days before starting experimental manipulation. Priming of the uterus by steroid hormones was started by the injection of 100 ng of Estrogen on each of 3 consecutive days. On the 6th day the mice were given a single injection of Progesterone in the form of Depo-Provera. Three days later an average of 6 blastocysts, either directly isolated from females or from cultures started the previous day when the embryos were at the 8-cell stage were surgically transferred to the right uterine horn. After the mice had recovered from surgery they were either given 1 injection of 40 ng of estrogen or 3 injections, 1 hour apart, of 5 μg LIF. Four days later (equivalent to Day 7-8 of pregnancy) the mice were sacrificed for analysis, and the implantation sites recovered.

[1] = Blastocyst type at time of transfer: D4 cultured, E2 36 blastocysts (6 recipients), LIF 42 (7)
[2] = Blastocyst type at time of transfer: D4 direct, 36 blastocysts in 6 recipients

With “LIF: cytokine Leukemia Inhibitory Factor, recombinant, member of the IL-6 family of cytokines” as the substance, how does the “Nos. Implanted” value [1] read?
Its value is 16.

What about the “Nos. Pregnant” value [1] of the same substance?
The value was 5.

What about the “Nos. Implanted” value [2] of the same substance?
Its value is 30.

What about the “Nos. Pregnant” value [2] of the same substance?
The value was 6.

And the “Inducing embryo implantation in place of estrogen (result in words)” value (injection of LIF versus injection of estrogen, Table 1 protocol)?
The value was “can unequivocally replace the injection of estrogen for inducing embryo implantation”.

Source: patent US7504096B1, “Methods for in vitro fertilization” (The United States of America as represented by the …, priority 1999, dated 2009)
